# In patent US8298793B2, “Methods for isolating proteons from plasma samples” (Auburn University, priority 2002, dated 2012):
# “And” between values parts separate entries of the source, which are not always exact repeats. Equal values may be shown once. “Also recorded” adds a separate entry of the source. Where a name gives a salt, the structure may show the parent alone.
# Tests used:
# proteons = assay: Proteon formation in plasma, counted by dark-field microscopy; assay type: biochemical; settings: for number of proteons visible by dark-field microscopy: added to proteons produced without chaotropic compounds, then 120° C. and 20 psi; for number of proteons with rising concentration of chaotropic compound: plasma with 0, 0.01, 0.1, 1, 4 and 8 M, 120° C., 20 psi, dark-field microscopy
# [1] = system: H9c2[2-1] (rat heart myocardium) cells; assay: MTT cell proliferation assay on myocardium cells; assay type: cell-based; settings: Staurosporine, 1% FCS, concentration not given
# Excerpt: (§1) The impact of PNCs upon viability of various cultured cells was investigated using the tetrazolium salt (MTT) cell proliferation assay. RG2 ([…] brain glioma), F98 (rat brain glioma), Hs683 (human brain glioma), CTX TNA2 (rat transfected astrocyte), H9c2[2-1] (rat heart myocardium), 27FR (rat skin fibroblast), and SVGp12 (human brain astroglia) cells were obtained from American Type Culture Collection (ATCC) and maintained as recommended by ATCC. MTT cell proliferation assays are commercially available. See, e.g., MTT cell proliferation assay from ATCC. Cells were plated in Dulbecco's modified Eagle's growth medium ([…], Sigma Chemical Inc., St. […] PNCs were isolated from blood obtained from shark, dog, and rabbit using the ultrafiltration protocol described in Example 5. PNCs were autoclaved at 120° C. and 20 psi for 15 minutes before adding to the cell cultures. […] MTT was reduced in metabolically active cells to form purple formazan crystals, which were dissolved by DMSO and quantified by a BIO-RADTM plate reader. For each cell type, a linear relationship between cell number and absorbance is established, enabling accurate, straightforward quantification of changes in proliferation.
# RG2 cells = assay: MTT cell proliferation assay on RG2 glioma cells; assay type: cell-based, mouse
# Description: The impact of PNCs upon viability of various cultured cells was investigated using the tetrazolium salt (MTT) cell proliferation assay. RG2 (mouse brain glioma), F98 (rat brain glioma), Hs683 (human brain glioma), CTX TNA2 (rat transfected astrocyte), H9c2[2-1] (rat heart myocardium), 27FR (rat skin fibroblast), and SVGp12 (human brain astroglia) cells were obtained from American Type Culture Collection (ATCC) and maintained as recommended by ATCC. […] Cells were plated in Dulbecco's modified Eagle's growth medium ([MUT], Sigma Chemical Inc., St. […] PNCs were autoclaved at 120° C. and 20 psi for 15 minutes before adding to the cell cultures. […] MTT was reduced in metabolically active cells to form purple formazan crystals, which were dissolved by DMSO and quantified by a BIO-RADTM plate reader. For each cell type, a linear relationship between cell number and absorbance is established, enabling accurate, straightforward quantification of changes in proliferation. […] Catalog No. S5921), 100 μg, FW 466.5. Dissolve 100 μg staurospine into 214.3 μl • DMSO to equal a 1 mM stock solution. Store at -200° C. […] TX put on late afternoon. • Add staurospine, autoclaved shark PNC, and either 10%, 1%, or 0% FCS treatments to cells and incubate overnight.
# [2] = system: CTX TNA2 (rat transfected astrocyte) cells; assay: MTT cell proliferation assay on CTX astrocytes; assay type: cell-based; settings: CTX astro, Staurosporine, 1% FCS
# Excerpt: as §1
# [3] = system: F98 (rat brain glioma) cells; assay: MTT cell proliferation assay on F98 glioma cells; assay type: cell-based; settings: Staurosporine, 1% FCS, concentration not printed; for Absorbance at 550 nm (MTT), single well: listed as Staurosporine
# Excerpt: as §1
# [4] = system: 27FR (rat skin fibroblast) cells; assay: MTT cell proliferation assay on fibroblasts; assay type: cell-based; settings: Fibro, Staurosporine, 1% FCS
# Excerpt: as §1
# [5] = system: SVGp12 (human brain astroglia) cells; assay: MTT cell proliferation assay on SVG astrocytes; assay type: cell-based; settings: SVG astro, Staurosporine, 1% FCS, concentration not printed; for Absorbance at 550 nm (MTT), single well: listed as Staurosporine
# Excerpt: as §1
# [6] = myocard, Table 10 second myocard column
# [7] = RG2, 10% FCS, staurosporine 1 μM, Table 6
# [8] = RG2, Staurosporine 100 urn, 1% FCS, Table 10
# [9] = RG2, Staurosporine, 1% FCS, Table 10, concentration not given
# [10] = Table 10, concentration not given
structure (smiles),measurement,setting,value
N=C(N)N [guanidine hydrochloride],number of proteons visible by dark-field microscopy,proteons,great reduction
same,number of proteons with rising concentration of chaotropic compound,proteons,decreased
CN[C@@H]1C[C@H]2O[C@@](C)([C@@H]1OC)n1c3ccccc3c3c4c(c5c6ccccc6n2c5c31)C(=O)NC4 [staurosporine],"Ab. Av. (Absorbance at 550 nm, MTT)","[1]; Myocard, Table 10 first Myocard column",0.283
same,"Ab. Av. (Absorbance at 550 nm, MTT)",[1]; [6],0.16
same,"Absorbance at 550 nm (MTT), single well",[1]; [6],0.176
same,"Ab. Av. (Absorbance at 550 nm, MTT)",RG2 cells; [7],0.4053
same,"Absorbance at 550 nm (MTT), single well",RG2 cells; [7],0.406 and 0.411 and 0.399
same,"Ab. Av. (Absorbance at 550 nm, MTT)",RG2 cells; [8],0.2893
same,"Absorbance at 550 nm (MTT), single well",RG2 cells; [8],0.272 and 0.279
same,"Ab. Av. (Absorbance at 550 nm, MTT)",RG2 cells; [9],0.1268
same,"Absorbance at 550 nm (MTT), single well",RG2 cells; [9],0.149 and 0.12 and 0.119
same,"Ab Av. (Absorbance at 550 nm, MTT)","RG2 cells; RG2, stauro 1% FCS (1 μM per protocol b158), Table 7",0.09867
same,"Ab. Av. (Absorbance at 550 nm, MTT)",[2]; [10],0.1445
same,"Absorbance at 550 nm (MTT), single well",[2]; [10],0.122 and 0.118 and 0.126
same,"Ab. Av. (Absorbance at 550 nm, MTT)","[2]; Table 10 first CTX column, concentration not given",0.3782
same,"Ab. Av. (Absorbance at 550 nm, MTT)",[3]; Table 10 first F98 column,0.1333
same,"Absorbance at 550 nm (MTT), single well",[3]; Table 10 first F98 column,0.136 and 0.138 and 0.12 and 0.139
same,"Ab. Av. (Absorbance at 550 nm, MTT)",[3]; Table 10 second F98 column,0.1085
same,"Absorbance at 550 nm (MTT), single well",[3]; Table 10 second F98 column,0.108 and 0.109
same,"Ab. Av. (Absorbance at 550 nm, MTT)",[4]; [10],0.2757
same,"Absorbance at 550 nm (MTT), single well",[4]; [10],0.296 and 0.257 and 0.275
same,"Ab. Av. (Absorbance at 550 nm, MTT)","[4]; Table 10 second Fibro column, concentration not given",0.169
same,"Ab. Av. (Absorbance at 550 nm, MTT)",[5]; Table 10 first SVG column,0.128
same,"Absorbance at 550 nm (MTT), single well",[5]; Table 10 first SVG column,0.128 and 0.12 and 0.136
same,"Ab. Av. (Absorbance at 550 nm, MTT)",[5]; Table 10 second SVG column,0.067
same,"Absorbance at 550 nm (MTT), single well",[5]; Table 10 second SVG column,0.067 and 0.066 and 0.068
NC(N)=O [urea],number of proteons visible by dark-field microscopy,proteons,great reduction
same,number of proteons with rising concentration of chaotropic compound,proteons,decreased
"O=C(O)CN(CCN(CC(=O)O)CC(=O)O)CC(=O)O [EDTA, ethylene diamine tetra acetate]",effect on formation of proteons from plasma,proteons; 10 mM EDTA added,prevented the formation of proteon; also recorded: production was quenched
